Experimental findings from ChEMBL document CHEMBL3817807, “Sequence-specific DNA binding by long hairpin pyrrole-imidazole polyamides containing an 8-amino-3,6-dioxaoctanoic acid unit” (Bioorg Med Chem, 2016) are described below.

Usually solubility stands for the dissolved amount per volume that the medium holds.

Data set [1] in a line: Drug uptake in human MDA-MB-231 cell nucleus at 10 uM after 72 hrs by FITC/Hoechst 33342-staining based confocal microscopic analysis. The data set is classed as ADME. The conditions noted are these: mda-mb-231, 72 h.
The nature of data set [2]: Binding affinity to GGGCAGTCA oligonucleotide DNA sequence (unknown origin) at 50 nM incubated for 16 hrs by PCR based Bind-n-Seq analysis.
Data set [3] in a line: Binding affinity to GAGTCTCCC oligonucleotide DNA sequence (unknown origin) at 50 nM incubated for 16 hrs by PCR based Bind-n-Seq analysis.
The nature of data set [4]: Binding affinity to CTCTCTGCA oligonucleotide DNA sequence (unknown origin) at 50 nM incubated for 16 hrs by PCR based Bind-n-Seq analysis.
The nature of data set [5]: Binding affinity to ACAGCCTCG oligonucleotide DNA sequence (unknown origin) at 50 nM incubated for 16 hrs by PCR based Bind-n-Seq analysis.
Data set [6] is described as follows: Binding affinity to GTCTCCGAA oligonucleotide DNA sequence (unknown origin) at 50 nM incubated for 16 hrs by PCR based Bind-n-Seq analysis.
Data set [7] in a line: Binding affinity to ATCGGCAGA oligonucleotide DNA sequence (unknown origin) at 50 nM incubated for 16 hrs by PCR based Bind-n-Seq analysis.
Data set [8] in a line: Binding affinity to AGGCTCTCA oligonucleotide DNA sequence (unknown origin) at 50 nM incubated for 16 hrs by PCR based Bind-n-Seq analysis.
A short description of data set [9]: Binding affinity to AATTTACCT oligonucleotide DNA sequence (unknown origin) at 50 nM incubated for 16 hrs by PCR based Bind-n-Seq analysis.
A short description of data set [10]: Binding affinity to GTGAGCCTA oligonucleotide DNA sequence (unknown origin) at 50 nM incubated for 16 hrs by PCR based Bind-n-Seq analysis.
A short description of data set [11]: Binding affinity to GGGCTAGAC oligonucleotide DNA sequence (unknown origin) at 50 nM incubated for 16 hrs by PCR based Bind-n-Seq analysis.
Data set [12] in a line: Binding affinity to TGTCAGCCT oligonucleotide DNA sequence (unknown origin) at 50 nM incubated for 16 hrs by PCR based Bind-n-Seq analysis.
Data set [13] can be described thus: Binding affinity to TGGCAGACA oligonucleotide DNA sequence (unknown origin) at 50 nM incubated for 16 hrs by PCR based Bind-n-Seq analysis.
Data set [14] is described as follows: Binding affinity to AGTCAGCCT oligonucleotide DNA sequence (unknown origin) at 50 nM incubated for 16 hrs by PCR based Bind-n-Seq analysis.
Data set [15] is described as follows: Binding affinity to TGGCAGACT oligonucleotide DNA sequence (unknown origin) at 50 nM incubated for 16 hrs by PCR based Bind-n-Seq analysis.
Data set [16] is described as follows: Binding affinity to ATGTCTGCC oligonucleotide DNA sequence (unknown origin) at 50 nM incubated for 16 hrs by PCR based Bind-n-Seq analysis.
Data set [17] is described as follows: Binding affinity to AGTCGGCCT oligonucleotide DNA sequence (unknown origin) at 50 nM incubated for 16 hrs by PCR based Bind-n-Seq analysis.
Data set [18] is described as follows: Binding affinity to AGTCTGCCT oligonucleotide DNA sequence (unknown origin) at 50 nM incubated for 16 hrs by PCR based Bind-n-Seq analysis.
The nature of data set [19]: Binding affinity to TTGTCGGCC oligonucleotide DNA sequence (unknown origin) at 50 nM incubated for 16 hrs by PCR based Bind-n-Seq analysis.
Data set [20] is described as follows: Binding affinity to AGGCAGACT oligonucleotide DNA sequence (unknown origin) at 50 nM incubated for 16 hrs by PCR based Bind-n-Seq analysis.
The nature of data set [21]: Binding affinity to TAGTCGGCC oligonucleotide DNA sequence (unknown origin) at 50 nM incubated for 16 hrs by PCR based Bind-n-Seq analysis.
Data set [22] in a line: Binding affinity to 5'-biotin labeled GCGAGGCAGACACGCTTTTGCGTGTCTGCCTCGC-3' DNA (unknown origin) assessed as association rate by SPR analysis. Background: Surface plasmon resonance follows binding to a sensor surface in real time, without labels.
Data set [23] in a line: Binding affinity to 5'-biotin labeled GCGAGGCAGACACGCTTTTGCGTGTCTGCCTCGC-3' DNA (unknown origin) assessed as dissociation rate by SPR analysis.
A short description of data set [24]: Binding affinity to 5'-biotin labeled GCGAGGCAGACACGCTTTTGCGTGTCTGCCTCGC-3' DNA (unknown origin) by SPR analysis.
The nature of data set [25]: Aqueous solubility of the compound […] assessed as saturation concentration by nanodrop analysis. Type of data set: physicochemical.

Each structure is given as a SMILES string. Values after ≈ are worked out from the molar mass of the structure shown. Active and inactive are the calls of the source. The calls are words filed in the database; no cut-off is given here.

As for `CC(=O)Nc1cn(C)c(C(=O)Nc2cn(C)c(C(=O)NCCOCCOCC(=O)Nc3cn(C)c(C(=O)Nc4cc(C(=O)Nc5cc(C(=O)NCCCC(=O)Nc6cn(C)c(C(=O)Nc7cc(C(=O)Nc8cc(C(=O)NCCC(=O)Nc9cn(C)c(C(=O)Nc%10cc(C(=O)Nc%11cc(C(=O)NCCC(=O)NCCCN(C)CCCNC(=S)Nc%12ccc%13c(c%12)C(=O)OC%13%12c%13ccc(O)cc%13Oc%13cc(O)ccc%13%12)n(C)c%11)n(C)c%10)n9)n(C)c8)n(C)c7)n6)n(C)c5)n(C)c4)n3)n2)n1`, the Drug uptake result in data set [1] was “Active”.
The same measure, in the same setting: with `CC(=O)Nc1cn(C)c(C(=O)Nc2cn(C)c(C(=O)NCCOCCOCC(=O)Nc3cn(C)c(C(=O)Nc4cc(C(=O)Nc5cc(C(=O)NCCCC(=O)Nc6cn(C)c(C(=O)Nc7cc(C(=O)NCCOCCOCC(=O)Nc8cn(C)c(C(=O)Nc9cc(C(=O)Nc%10cc(C(=O)NCCC(=O)NCCCN(C)CCCNC(=S)Nc%11ccc%12c(c%11)C(=O)OC%12%11c%12ccc(O)cc%12Oc%12cc(O)ccc%12%11)n(C)c%10)n(C)c9)n8)n(C)c7)n6)n(C)c5)n(C)c4)n3)n2)n1` the entry was “Active”.
Turning to `CC(=O)Nc1cn(C)c(C(=O)Nc2cn(C)c(C(=O)NCCC(=O)NCCC(=O)Nc3cn(C)c(C(=O)Nc4cc(C(=O)Nc5cc(C(=O)NCCCC(=O)Nc6cn(C)c(C(=O)Nc7cc(C(=O)Nc8cc(C(=O)NCCC(=O)Nc9cn(C)c(C(=O)Nc%10cc(C(=O)Nc%11cc(C(=O)NCCC(=O)NCCCN(C)CCCNC(=O)CCOCCOCCOCCOCCOCCOCCOCCOCCOCCOCCOCCOCCNC(=O)CCCC[C@@H]%12SC[C@@H]%13NC(=O)N[C@@H]%13%12)n(C)c%11)n(C)c%10)n9)n(C)c8)n(C)c7)n6)n(C)c5)n(C)c4)n3)n2)n1`, the outcome in [2], in data set [3], in data set [4], in data set [5], in [6] and in data set [7] was Active. The result in data set [8], in data set [9], in [10] and in data set [11] was Active.
For the compound `CC(=O)Nc1cn(C)c(C(=O)Nc2cn(C)c(C(=O)NCCOCCOCC(=O)Nc3cn(C)c(C(=O)Nc4cc(C(=O)Nc5cc(C(=O)NCCCC(=O)Nc6cn(C)c(C(=O)Nc7cc(C(=O)NCCOCCOCC(=O)Nc8cn(C)c(C(=O)Nc9cc(C(=O)Nc%10cc(C(=O)NCCC(=O)NCCCN(C)CCCNC(=O)CCOCCOCCOCCOCCOCCOCCOCCOCCOCCOCCOCCOCCNC(=O)CCCC[C@@H]%11SC[C@@H]%12NC(=O)N[C@@H]%12%11)n(C)c%10)n(C)c9)n8)n(C)c7)n6)n(C)c5)n(C)c4)n3)n2)n1`, the outcome in data set [12], in [13], in data set [14], in data set [15], in data set [16] and in data set [17] was Active. The outcome in data set [18], in [19], in [20] and in data set [21] was Active.
Consider `CC(=O)Nc1cn(C)c(C(=O)Nc2cn(C)c(C(=O)Nc3cc(C(=O)NCCC(=O)Nc4cn(C)c(C(=O)Nc5cc(C(=O)Nc6cc(C(=O)NCCCC(=O)Nc7cn(C)c(C(=O)Nc8cc(C(=O)Nc9cc(C(=O)NCCC(=O)Nc%10cn(C)c(C(=O)Nc%11cc(C(=O)Nc%12cc(C(=O)NCCC(=O)NCCCN(C)CCCN)n(C)c%12)n(C)c%11)n%10)n(C)c9)n(C)c8)n7)n(C)c6)n(C)c5)n4)n(C)c3)n2)n1`, for which the Ka in [22] was found to be 2.4 ×10⁵ /Ms. The Kd in data set [23] was 1.4 ×10⁻³ /s; in data set [24], 5.9 nM. The solubility in data set [25] came out at 9.1 mM (≈ 17.8 mg/mL).
For the compound `CC(=O)Nc1cn(C)c(C(=O)Nc2cn(C)c(C(=O)NCCC(=O)NCCC(=O)Nc3cn(C)c(C(=O)Nc4cc(C(=O)Nc5cc(C(=O)NCCCC(=O)Nc6cn(C)c(C(=O)Nc7cc(C(=O)Nc8cc(C(=O)NCCC(=O)Nc9cn(C)c(C(=O)Nc%10cc(C(=O)Nc%11cc(C(=O)NCCC(=O)NCCCN(C)CCCN)n(C)c%11)n(C)c%10)n9)n(C)c8)n(C)c7)n6)n(C)c5)n(C)c4)n3)n2)n1`, the Ka in data set [22] came to 1.3 ×10⁵ /Ms. The Kd in data set [23] is 1.9 ×10⁻³ /s; in data set [24], 15 nM.
Turning to `CC(=O)Nc1cn(C)c(C(=O)Nc2cn(C)c(C(=O)Nc3cc(C(=O)NCCC(=O)Nc4cn(C)c(C(=O)Nc5cc(C(=O)Nc6cc(C(=O)NCCCC(=O)Nc7cn(C)c(C(=O)Nc8cc(C(=O)NCCOCCOCC(=O)Nc9cn(C)c(C(=O)Nc%10cc(C(=O)Nc%11cc(C(=O)NCCC(=O)NCCCN(C)CCCN)n(C)c%11)n(C)c%10)n9)n(C)c8)n7)n(C)c6)n(C)c5)n4)n(C)c3)n2)n1`, in data set [22], the Ka is 1 ×10⁴ /Ms. Moreover, the Kd turned out to be 4.5 ×10⁻³ /s in data set [23] and 250 nM in data set [24].
Turning to `CC(=O)Nc1cn(C)c(C(=O)Nc2cn(C)c(C(=O)NCCOCCOCC(=O)Nc3cn(C)c(C(=O)Nc4cc(C(=O)Nc5cc(C(=O)NCCCC(=O)Nc6cn(C)c(C(=O)Nc7cc(C(=O)NCCOCCOCC(=O)Nc8cn(C)c(C(=O)Nc9cc(C(=O)Nc%10cc(C(=O)NCCC(=O)NCCCN(C)CCCN)n(C)c%10)n(C)c9)n8)n(C)c7)n6)n(C)c5)n(C)c4)n3)n2)n1`, the Ka in [22] was found to be 1.8 ×10⁴ /Ms. In addition, the figures for the Kd in data set [23] and in data set [24] were 3 ×10⁻⁴ /s and 16 nM, respectively. In [25], the solubility was determined as 13.9 mM (≈ 25.9 mg/mL).
Regarding `CC(=O)Nc1cn(C)c(C(=O)Nc2cn(C)c(C(=O)Nc3cc(C(=O)NCCC(=O)Nc4cn(C)c(C(=O)Nc5cc(C(=O)Nc6cc(C(=O)NCCCC(=O)Nc7cn(C)c(C(=O)Nc8cc(C(=O)Nc9cc(C(=O)NCCC(=O)Nc%10cn(C)c(C(=O)Nc%11cc(C(=O)Nc%12cc(C(=O)NCCC(=O)NCCCN(C)CCCNC(=S)Nc%13ccc%14c(c%13)C(=O)OC%14%13c%14ccc(O)cc%14Oc%14cc(O)ccc%14%13)n(C)c%12)n(C)c%11)n%10)n(C)c9)n(C)c8)n7)n(C)c6)n(C)c5)n4)n(C)c3)n2)n1`, the Drug uptake result in data set [1] is “Active”.
As for `CC(=O)Nc1cn(C)c(C(=O)Nc2cn(C)c(C(=O)NCCOCCOCC(=O)Nc3cn(C)c(C(=O)Nc4cc(C(=O)Nc5cc(C(=O)NCCCC(=O)Nc6cn(C)c(C(=O)Nc7cc(C(=O)Nc8cc(C(=O)NCCC(=O)Nc9cn(C)c(C(=O)Nc%10cc(C(=O)Nc%11cc(C(=O)NCCC(=O)NCCCN(C)CCCN)n(C)c%11)n(C)c%10)n9)n(C)c8)n(C)c7)n6)n(C)c5)n(C)c4)n3)n2)n1`, the Ka in data set [22] was 1 ×10⁵ /Ms. In addition, the Kd in data set [23] stood at 1.8 ×10⁻³ /s; in data set [24], 18 nM. The solubility in [25] is 12.2 mM (≈ 23.3 mg/mL).
